{"source": "patent US20090054491A1", "about": "“Use” (AstraZeneca AB, priority 2005, published 2009)", "system": "Female C57Bl6 mice", "test": "Pharmacodynamic effect in mouse (intake of bland and palatable paste after fasting, body weight change)", "format": "in vivo", "protocol": "Female C57Bl6 mice (19-21 g) are singly housed for 7-days with ad libitum access to a “bland-paste” made from normal laboratory chow (R-3 Lactanin, Vadstena, Sweden) or to a “palatable-paste” of similar consistency containing oatmeal, butter, sugar, cocoa powder, cocoa butter and peanut butter. The day before the experimental day, food is removed for 12 hours. O the experiment day, animals are weighed and compound or vehicle is administered. Animals are returned to their home cages and given access to weighed amounts of both bland and palatable pastes. This food is then re-weighed 2, and optionally 4 and 6 hours later, and consumption of each food type calculated by the difference from initial food weight. Animals are further weighed at 24 hours after administration, and change in body weight over the treatment period is calculated."}
{"molecule": "COCc1cc(C#N)cc(-c2nc(-c3ccc(F)cn3)no2)c1", "note": "[3-[3-(5-fluoropyridin-2-yl)-1,2,4-oxadiazol-5-yl]-5-(methoxymethyl)benzonitrile]", "values": [{"measurement": "body weight recovery after fasting", "setting": "compared to vehicle treated animals, FIG. 2", "value": "slower body weight recovery"}, {"measurement": "effect on normal laboratory chow (intake)", "setting": "measured 2 hours after treatment, bland paste, fasted mice, FIG. 1", "value": "no effect"}, {"measurement": "intake of sweets", "setting": "measured 2 hours after treatment, palatable paste, fasted mice, FIG. 1", "value": "decreased intake of sweets measured 2 hours after treatment in a dose-related manner"}]}
